This is an account of results in US20110034418A1, “PHARMACEUTICAL COMPOSITION WITH BISPHOSPHONATE” (priority 2008, published 2011).

The structures appear in SMILES notation. pIC50: −log10 of the molar value.

The assay deals with T1, Human farnesyl pyrophosphate synthase (FPPS, Swissprot ID: P14324) (Homo sapiens, UniProt P14324).
T1 construct: made in house
T1 sequence (P14324 67-419 limits assumed): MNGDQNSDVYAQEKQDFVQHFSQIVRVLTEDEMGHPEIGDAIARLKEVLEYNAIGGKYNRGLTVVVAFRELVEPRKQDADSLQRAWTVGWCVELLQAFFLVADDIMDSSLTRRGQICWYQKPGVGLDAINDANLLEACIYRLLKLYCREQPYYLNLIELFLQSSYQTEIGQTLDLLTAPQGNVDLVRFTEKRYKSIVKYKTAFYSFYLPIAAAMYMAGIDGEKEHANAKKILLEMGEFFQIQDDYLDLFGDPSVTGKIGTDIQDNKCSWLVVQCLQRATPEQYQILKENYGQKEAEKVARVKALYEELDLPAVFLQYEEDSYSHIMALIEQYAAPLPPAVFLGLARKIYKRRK
In words: label-free LC/MS/MS assay for farnesyl pyrophosphate synthase (FPPS), cell-free in vitro. Conditions: 5 min pre-incubation, GPP/IPP substrates, FPP quantified by LC/MS/MS. The class given is biochemical. As to the method:
For example, in a cell-free in vitro assay the superiority of compounds of the formula I over compounds already known can be shown. Briefly, the reaction proceeds in the presence of enzyme and an inhibitor of the formula I, and the reaction product (farneysyl pyrophosphate) is quantified by LC/MS/MS.
In detail, the inhibitor and enzyme are pre-incubated before adding the substrates
The assay is a label-free assay for farnesyl pyrophosphate synthase (FPPS) based on LC/MS/MS. This method quantifies in-vitro untagged farnesyl pyrophosphate (FPP) and is suitable for high throughput screening (HTS) to find inhibitors of FPPS and for the determinations of IC50 values of candidate compounds. The analysis time is 2.0 minutes with a total cycle time of 2.5 minutes. The analysis can be formatted for 384-well plates resulting in an analysis time of 16 hours per plate.
Pentanol, methanol, and isopropyl alcohol are HPLC grade and obtained from Fisher Scientific. DMIPA is from Sigma-Aldrich. Water is from an in-house Milli-Q system. […]
The Multiple Reaction Monitoring (MRM) transitions monitored are 381−>79− for FPP and 397−>159− for FSPP at a collision energy of 22 eV and a collision cell pressure of 2.1×10^−3 mbar of Ar. […]
The total cycle time per sample is 2.5 minutes. Since the analysis is formatted for 384-well plates, a plate is analyzed in 16 hours. […]

As a reminder, the pIC50 is −log10 of the IC50, conventionally taken in molar units. In turn, `CCc1cncn1CC(O)(P(=O)(O)O)P(=O)(O)O` [Reference-Example 2, [2-(5-Ethyl-imidazol-1-yl)-1-hydroxy-1-phosphono-ethyl]-phosphonic acid] gave a negative logarithm of the IC50 (pIC50) of 8.51 to 8.62.
